From US8993611B2, “Family of polyamine arylethylamide compounds, and their cosmetic or dermocosmetic use” (Exsymol, priority 2012, dated 2015)
Read-outs that look alike come from different tables or passages of the source.

Columns and labels:
[1] = test system: Salmonella typhimurium (TA 100); details: positive control; PBS control 88
Experimental: The study was carried out according to an almost-identical manner to the here-above test 2, with however D-glucose replacing D-(+)-fructose and according to following conditions. Experimentally, 18.02 g of D-glucose were solubilized at room temperature in 100 mL of water. 10 mL of the solution corresponding to 10 mM of the compound according to the invention, N-((4-imidazolyl)ethyl)-α,β-diamino-propanamide, were sampled and introduced after a pH adjustment by sodium hydroxide. The resulting reaction mixture was then introduced in a screw-top test tube, then heated at 100° C. for 80 minutes.
In parallel, the TA 100 strain was cultured in the Nutrient Broth Oxoid N° 2 (NBO2) supplemented with Ampicilline. The culture was placed overnight at 37° C. in an orbital shaker (88 rpm) so that bacteria were in growth exponential phase (10^7 to 10^9 bacteria/ml).
100 μl of test solution were added to 100 μl of the above-mentioned bacterial suspension and to 500 μl of PBS phosphate buffer, the resulting mixture being incubated 1 h at 37° C. under orbital stirring (122 rpm). 2 ml of soft-agar supplemented in biotin histidine and maintained at 45° C. were added. After mixing with Vortex, they were deposited in a Petri dish containing Vogel-Bonner hard-agar. After solidification, dishes were transferred in the incubator at 37° C. during 48-72 h. […]

[2] = test system: Salmonella typhimurium (TA 100); assay: Test 3: detoxification of the reference glycotoxin methyl-glyoxal (MGO), Ames pre-incubation test; assay type: cell-based
Experimental: […] The resulting mixture was incubated 30 minutes at 37° C. under orbital stirring (122 rpm).
(§1) The counting of colonies was then achieved manually.
In addition to the N-((4-imidazolyl)ethyl)-α, β-diaminopropanamide compound, the following compounds according to the invention were also tested at different concentrations: • N-((4-hydroxyphenyl)ethyl)-α,β-diaminopropanamide • N-((4-imidazolyl)ethyl)-α,γ-diaminobutanamide • N-((3,4-dihydroxyphenyl)ethyl)-α,β-diaminopropanamide • N-((4-imidazolyl)ethyl)-L-lysinamide
The results are gathered in table 3 below, compared to the PBS phosphate buffer (negative control).

[3] = test system: purified histones, enriched with H1 histones; assay: Test 1: protection of histones towards methyl-glyoxal (MGO), fluorimetry of the dialyzed mixture; assay type: biochemical; details: for RFU (fluorescence of dialyzed mixture, indicative of histone damage by MGO): compound 10 mM + histones + MGO 10 mM, 24 h at 37° C., excitation 340 nm, emission 470 nm, control histones + MGO 62231; for formation of non-enzymatic glycosylation products from reaction of glycotoxin with histones: result in words
Experimental: A solution of purified histones (5 mg/l), enriched with H1 histones, was incubated in the presence of the reference glycotoxin MGO (10 mM) during 24 h at 37° C. under stirring. In order to follow specifically fluorescence of products from non-enzymatic glycosylation of histones, it was necessary to get rid of MGO fluorescence as well as the one of the glycotoxin-trapper products. For this, the reaction mixture was dialyzed. Then it was introduced in a dialysis tape and three successive 3 hour-baths were run, each one in a NaH2PO4 buffer solution (83.3 mM) in which MGO was diluted. Dialyzed mixture fluorescence which was indicative of the damage of histones made by reaction with MGO (adduct formation) was measured by fluorimetry (λ excitation: 340 nm; λ emission: 470 nm). The measure unit corresponds to RFU (for “Relative Fluorescence Unit”).

[4] = test system: Salmonella typhimurium (TA 100); assay: Test 2: detoxification of glycotoxins released by fructosylated casein, Ames pre-incubation test without metabolic activator; assay type: cell-based; details: for Number of revertants: TA 100, PBS control 84
From the text: The study was achieved on a Salmonella typhimurium (TA 100) bacterial strain which belongs to reference strains used for the Ames regulatory test (ICH steering committee, Jul. 19, 1995, Guidance on specific aspect of regulatory genotoxicity tests for pharmaceuticals). The objective was to determine, in the mutated strains' colonies, the number of revertant colonies which are representative of mutagenesis in casein-fructose system, with or without a compound according to the invention.
Experimentally, 2.7 g of D-(+)-fructose were solubilized at room temperature in 100 mL of phosphate buffer. After collecting 20 g of the colourless limpid solution (Cfructose=150 mM), 0.600 g of sodium caseinate were introduced until complete dissolution. The solution was then introduced in 2×10mL in screw-top test tubes, then placed in an oil bath at 120° C. during 1 h.
To different concentrations (400 μl) of compound according to the invention were successively added 500 μl of glycated casein and 100 μl of the above-mentioned bacterial suspension. The resulting mixture was incubated 30 minutes at 37° C. under orbital stirring (122 rpm).
as §1
The results are presented in table 2 below, compared to a negative control (PBS phosphate buffer).

[5] = compound 75 μM + methyl-glyoxal 140 μM, PBS control 91, MGO alone 161
[6] = compound 750 μM + methyl-glyoxal 140 μM, PBS control 91, MGO alone 161

[N-]=[N+]=[N-] [NaN3, sodium azide]
Number of revertants [1]: 211

NCC(N)C(=O)NCCc1ccc(O)c(O)c1 (stereo not drawn) [N-((3,4-dihydroxyphenyl)ethyl)-α,β-diaminopropanamide]
Number of revertants [2, 5]: 161 | Number of revertants [2, 6]: 111

NCCC(N)C(=O)NCCc1c[nH]cn1 (stereo not drawn) [N-((4-imidazolyl)ethyl)-α,γ-diaminobutanamide]
RFU (fluorescence of dialyzed mixture, indicative of histone damage by MGO) [3]: 21526 RFU | formation of non-enzymatic glycosylation products from reaction of glycotoxin with histones [3]: strongly decrease | Number of revertants [2, 5]: 154 | Number of revertants [2, 6]: 116

NCCCC[C@H](N)C(=O)NCCc1c[nH]cn1 [N-((4-imidazolyl)ethyl)-L-lysinamide]
Number of revertants [2, 5]: 141 | Number of revertants [2, 6]: 132

NCC(N)C(=O)NCCc1ccc(O)cc1 (stereo not drawn) [N-((4-hydroxyphenyl)ethyl)-α,β-diaminopropanamide]
Number of revertants [2, 5]: 152

CC(=O)C=O [Methyl-glyoxal, methyl-glyoxal, reference compound]
Number of revertants ([2]; methyl-glyoxal alone 140 μM, PBS control 91): 161 | Number of revertants ([2]; methyl-glyoxal alone 280 μM, PBS control 72): 308

NCC(N)C(=O)NCCc1c[nH]cn1 (stereo not drawn) [N-((4-imidazolyl)ethyl)-α,β-diaminopropanamide]
RFU (fluorescence of dialyzed mixture, indicative of histone damage by MGO) [3]: 20441 RFU | formation of non-enzymatic glycosylation products from reaction of glycotoxin with histones [3]: strongly decrease | Number of revertants ([2]; compound 75 μM + methyl-glyoxal 280 μM, PBS control 72, MGO alone 308): 141 | Number of revertants ([2]; compound 750 μM + methyl-glyoxal 280 μM, PBS control 72, MGO alone 308): 95 | RFU ([4]; compound 7.5 mM + fructosylated casein, PBS control = 1): 1.42 RFU | Number of revertants ([4]; compound 7.5 mM + fructosylated casein): 119 | revertant count relative to PBS control ([4]; compound 15 mM + fructosylated casein, PBS control = 1): 1.11 RFU | Number of revertants ([4]; compound 15 mM + fructosylated casein): 93 | toxicity of the formed glycotoxins ([4]; result in words, dose-effect relationship observed): strongly decrease
